Source: ChEMBL document CHEMBL5107980, “Seeking heterocyclic scaffolds as antivirals against dengue virus” (Eur J Med Chem, 2022)
In brackets after ≈: the same amount, converted by molar mass.

Columns and labels:
dengue virus type 2 [1] = assay: Antiviral activity against DENV2; type: functional, organism-based
dengue virus type 2 [2] = assay: Antiviral activity against DENV2 infected in African green monkey Vero cells assessed as inhibition of viral replication measured after 48 hrs by RT-PCR analysis; type: functional, organism-based
[3] = Cytotoxicity against African green monkey Vero cells assessed as cell growth inhibition after 48 hrs by MTT assay; type: toxicity, cell-based; conditions: chlorocebus sabaeus
[4] = Selectivity Index, ratio of CC50 for African green monkey Vero cells to EC50 for antiviral activity against DENV2 infected in African green monkey Vero cells; type: toxicity; conditions: Vero cells (CC50) and DENV2-infected Vero cells (EC50)
Aedes aegypti [5] = assay: Larvicidal activity against Aedes aegypti assessed as mortality rate at 5 ug per mosquito measured after 24 hrs relative to control; type: functional; conditions: dose 5 µg
Aedes aegypti [6] = assay: Larvicidal activity against Aedes aegypti assessed as lethal dose per mosquito measured for 24 hrs; type: functional
dengue virus type 3 [7] = assay: Antiviral activity against DENV3 infected in African green monkey Vero cells assessed as inhibition of virus induced cytopathic effect incubated for 45 mins by focus-formation assay; type: functional, organism-based; conditions: 0.75 h
dengue virus type 2 [8] = assay: Antiviral activity against DENV2 infected in hamster BHK-21 cells assessed as inhibition of virus induced cytopathic effect incubated for 45 mins by plaque formation assay; type: functional, organism-based; conditions: BHK-21, 0.75 h
[9] = Inhibition of DENV-2 NS5 RdRp polymerase expressed in Escherichia coli Rosetta2(DE3) measured after 1 hr by [alpha-32P]UTP-labeled radio-probe based scintillation counter analysis; set-up: species or system dengue virus type 2
[10] = target: Genome polyprotein (dengue virus type 2) (UniProt P29990); assay: Inhibition of DENV2 NS2B-NS3 protease at 50 uM using Bz-Nle-Lys-Arg-Arg-AMC as substrate measured after 30 mins by spectrofluorometer analysis relative to control
Genome polyprotein = Genome polyprotein (dengue virus type 2, UniProt P29990); assay: Inhibition of DENV2 NS2B-NS3 protease using Bz-Nle-Lys-Arg-Arg-AMC as substrate measured after 30 mins by spectrofluorometer analysis
dengue virus type 4 [11] = assay: Antiviral activity against DENV4 infected in hamster BHK-21 cells assessed as inhibition of virus induced cytopathic effect incubated for 45 mins by focus-formation assay; type: functional, organism-based; conditions: BHK-21, 0.75 h
dengue virus type 1 [12] = assay: Antiviral activity against DENV1 infected in hamster BHK-21 cells assessed as inhibition of virus induced cytopathic effect incubated for 45 mins by focus-formation assay; type: functional, organism-based; conditions: BHK-21, 0.75 h
[13] = target: Genome polyprotein (dengue virus type 2) (UniProt P29990); assay: Inhibition of DENV2 NS2B-NS3 protease at 50 uM using Bz-Nle-Lys-Arg-Arg-AMC as substrate by spectrofluorometer analysis relative to control
dengue virus type 2 [14] = assay: Antiviral activity against DENV2 infected in asian tiger mosquito C6/36 cells assessed as inhibition of virus induced cytopathic effect measured after 96 hrs by methylene blue staining based microscopic analysis; type: functional, organism-based; conditions: C6/36, 96 h
[15] = Cytotoxicity against hamster BHK-21 cells assessed as cell growth inhibition after 48 hrs by MTT assay; type: toxicity, cell-based, Mesocricetus auratus
[16] = Selectivity Index, ratio of CC50 for hamster BHK-21 cells to EC50 for antiviral activity against DENV2 infected in asian tiger mosquito C6/36 cells; type: toxicity; conditions: BHK-21 cells (CC50) and DENV2-infected C6/36 cells (EC50)
[17] = Inhibition of DENV1 (US/Hawaii/1944) RdRP expressed in Escherichia coli Rosetta2(DE3) incubated for 180 mins in presence of ATP,GTP,and UTP by scintillation counter analysis; set-up: species or system dengue virus type 1
[18] = Inhibition of DENV2 His6-tagged recombinant NGC RdRP expressed in Escherichia coli Rosetta2(DE3) measured after 180 mins in presence of NTP by scintillation counter analysis; set-up: species or system dengue virus type 2
[19] = Inhibition of DENV3 (MY00-22366) RdRP expressed in Escherichia coli Rosetta2(DE3) incubated for 180 mins in presence of ATP,GTP,and UTP by scintillation counter analysis; set-up: species or system dengue virus type 3
[20] = Inhibition of DENV4 (MY01-22713) RdRP expressed in Escherichia coli Rosetta2(DE3) incubated for 180 mins in presence of ATP,GTP,and UTP by scintillation counter analysis; set-up: species or system dengue virus type 4
dengue virus type 1 [21] = assay: Antiviral activity against DENV1 infected in hamster BHK-21 cells assessed as inhibition of virus induced cytopathic effect by viral tox-glo assay; type: functional, organism-based
dengue virus type 2 [22] = assay: Antiviral activity against DENV2 infected in hamster BHK-21 cells assessed as inhibition of virus induced cytopathic effect by viral tox-glo assay; type: functional, organism-based
dengue virus type 3 [23] = assay: Antiviral activity against DENV3 infected in hamster BHK-21 cells assessed as inhibition of virus induced cytopathic effect by viral tox-glo assay; type: functional, organism-based
dengue virus type 4 [24] = assay: Antiviral activity against DENV4 infected in hamster BHK-21 cells assessed as inhibition of virus induced cytopathic effect by viral tox-glo assay; type: functional, organism-based
Dengue virus = assay: Antiviral activity against DENV; type: functional, organism-based
Aedes aegypti [25] = assay: Larvicidal activity against Aedes aegypti assessed as mortality measured upto 48 hrs; type: functional; conditions: for LC50: Aedes aegypti

COc1ccc([C@@H]2N(Nc3ccc([N+](=O)[O-])cc3)C(=O)[C@@H]3Cc4ccccc4N23)cc1OC
EC50 (dengue virus type 2 [1]): 9.35 µM

CC(C)(C)[Si](C)(C)Oc1ccc(C2N(Nc3ccc([N+](=O)[O-])cc3)C(=O)[C@@H]3Cc4ccccc4N23)cc1 (stereo not given in full)
EC50 (dengue virus type 2 [1]): 4.79 µM

CCCc1cc(=O)oc2c(C(=O)CC(C)C)c(O)c(CC=C(C)C)c(O)c12
EC50 (dengue virus type 2 [2]): 2.6 µg/mL (≈ 6.98 µM) | CC50 at 48 h [3]: 550 µg/mL (≈ 1480 µM) | selectivity ratio [4]: 212

CS(=O)(=O)N1CCN(c2nnc(-c3ccc(Br)cc3)o2)C1=O
Activity (Aedes aegypti [5]): 86.7% | LD50 (Aedes aegypti [6]): 3.55 µg

FC(F)(F)Oc1cccc(Nc2ccnc(Nc3cccc(OC(F)(F)F)c3)n2)c1
IC50 (dengue virus type 3 [7]): 5 µM

CS(=O)(=O)N1CCN(c2nnc(-c3ccc(Cl)cc3Cl)o2)C1=O
Activity (Aedes aegypti [5]): 86.7% | LD50 (Aedes aegypti [6]): 2.39 µg

FC(F)(F)Oc1cccc(Nc2nccc(Nc3ccc(C(F)(F)F)cc3)n2)c1
IC50 (dengue virus type 2 [8]): 5 µM

CS(=O)(=O)N1CCN(c2nnc(-c3ccccc3)o2)C1=O
Activity (Aedes aegypti [5]): 73.3%

O=C1N/C(=N\c2nnc(-c3ccccc3F)s2)S/C1=C\c1cccc(F)c1
IC50 [9]: 7.2 µM

O=C1c2ccccc2C(=O)N1CCCSc1nnc(-c2ccc(NS(=O)(=O)c3ccc(C(F)(F)F)cc3)cc2)o1
inhibition [10]: 99.9% | IC50 (Genome polyprotein): 13.9 µM

FC(F)(F)Oc1ccccc1Nc1nccc(Nc2ccc(C(F)(F)F)cc2)n1
IC50 (dengue virus type 4 [11]): 5 µM

FC(F)(F)Oc1ccc(Nc2ccnc(Nc3cccc(OC(F)(F)F)c3)n2)cc1
IC50 (dengue virus type 1 [12]): 4 µM

O=c1c2ccccc2sn1-c1ccccc1[N+](=O)[O-]
inhibition [13]: 72%

Cc1ccc(-c2nc3nc4c(c(N5CCN(Cc6ccc7c(c6)OCO7)CC5)n3n2)CCC4)cc1
EC50 (dengue virus type 2 [14]): 4.5 µM | CC50 at 48 h [15]: 66 µM | selectivity ratio [16]: 14.7

Cc1ccc(S(=O)(=O)Nc2ccc(-c3nnc(SCc4cccc(C(F)(F)F)c4)o3)cc2)cc1
inhibition [10]: 80.4% | IC50 (Genome polyprotein): 23.9 µM

FC(F)(F)Oc1ccc(Nc2ccnc(Nc3ccccc3OC(F)(F)F)n2)cc1
IC50 (dengue virus type 2 [8]): 5 µM

CS(=O)(=O)N1CCN(c2nnc(-c3ccc(F)cc3)o2)C1=O
Activity (Aedes aegypti [5]): 70%

O=C1N/C(=N\c2nnc(-c3cccnc3)s2)S/C1=C\c1cccc(F)c1
IC50 [9]: 5.5 µM

O=C(NO)c1ncc(CS(=O)(=O)c2ccccc2)c(CO)c1O
IC50 [17]: 5.7 µM | IC50 [18]: 6 µM | IC50 [19]: 6.7 µM | IC50 [20]: 5 µM | EC50 (dengue virus type 1 [21]): 2.7 µM | EC50 (dengue virus type 2 [22]): 2.8 µM | EC50 (dengue virus type 3 [23]): 2.7 µM | EC50 (dengue virus type 4 [24]): 2.2 µM

Cc1ccc(S(=O)(=O)Nc2ccc(-c3nnc(SCc4ccc(C(F)(F)F)cc4)o3)cc2)cc1
inhibition [10]: 83.9% | IC50 (Genome polyprotein): 25.2 µM

Cc1ccc(S(=O)(=O)Nc2ccc(-c3nnc(SCc4ccccc4C(F)(F)F)o3)cc2)cc1
inhibition [10]: 80.8% | IC50 (Genome polyprotein): 24 µM

Cc1cc(OC(F)(F)F)ccc1Nc1ccnc(Nc2ccccc2OC(F)(F)F)n1
IC50 (dengue virus type 2 [8]): 5 µM

O=C1N/C(=N\c2nnc(-c3ccccc3Cl)s2)S/C1=C\c1cccc(F)c1
IC50 [9]: 2.1 µM

O=C1N/C(=N\c2nnc(-c3cccc(F)c3)s2)S/C1=C\c1cccc(F)c1
IC50 [9]: 2.3 µM

CNc1cccc(Nc2ccnc3ccc(Br)cc23)c1
EC50 (Dengue virus): 0.24 µM

O=C1N=Cc2ccc(Nc3ccnc4ccc(Br)cc34)cc21
EC50 (Dengue virus): 0.64 µM | EC90 (Dengue virus): 1.5 µM

O=c1c2ccccc2sn1-c1ccc(Br)cc1
inhibition [13]: 80%

O=c1c2ccccc2sn1-c1c(Cl)cccc1Cl
inhibition [13]: 94%

O=c1c2ccccc2sn1-c1ccccc1Cl
inhibition [13]: 94%

O=C1N/C(=N\c2nnc(-c3cccc(F)c3)s2)S/C1=C\c1c(Cl)cccc1Cl
IC50 [9]: 5.8 µM

OCCN1CCN(c2nccc(Nc3ccc(-c4ccccc4)cc3)n2)CC1
LC90 (Aedes aegypti [25]): 30.13 µM | LC50 (Aedes aegypti [25]): 19.9 µM

CC(C)CC(=O)c1c(O)c2c(c3c(-c4ccccc4)cc(=O)oc13)OC(C)(C)C=C2 [ISOMAMMEIGIN]
EC50 (dengue virus type 2 [2]): 9.6 µg/mL (≈ 23.7 µM) | CC50 at 48 h [3]: 3150 µg/mL (≈ 7790 µM) | selectivity ratio [4]: 328

Fc1cc2cn[nH]c2cc1Nc1ccnc2ccc(Br)cc12
EC50 (Dengue virus): 0.69 µM | EC90 (Dengue virus): 4 µM

Oc1cccc(Nc2ccnc3ccc(Br)cc23)c1
EC50 (Dengue virus): 0.63 µM

COc1cccc(Nc2ccnc3ccc(C(F)(F)F)cc23)c1
EC50 (Dengue virus): 0.82 µM

Cc1cc([N+](=O)[O-])ccc1-n1sc2ccccc2c1=O
inhibition [13]: 92%

Cc1[nH]c2ccc(Br)cc2c1C
LC90 (Aedes aegypti [25]): 14.74 µM | LC50 (Aedes aegypti [25]): 10.6 µM

O=C1c2ccccc2C(=O)N1CCCCSc1nnc(-c2ccc(NS(=O)(=O)c3ccc(C(F)(F)F)cc3)cc2)o1
inhibition [10]: 77.6% | IC50 (Genome polyprotein): 15.1 µM

Cc1[nH]c2c(C(=O)O)cccc2c1C
LC90 (Aedes aegypti [25]): >528.51 µM | LC50 (Aedes aegypti [25]): > 854 µM

O=c1c2ccccc2sn1-c1ccccc1O
inhibition [13]: 89%
